Assay results taken from patent US9655913B2, “Anti-esophageal cancer compound and method of use thereof” (Hong Kong Baptist University, priority 2015, dated 2017).
“Also recorded” adds a separate entry of the source.

How the values were obtained:
[1] = test system: KYSE-150; experiment: MTT cytotoxicity assay, KYSE-150; type: cell-based, Human; settings: KYSE-150, highest concentration of 50 μg/mL, 48 hours
Description: (§1) In this invention, compound 1 was dissolved in dimethyl sulfoxide (DMSO) to make stock solutions and further diluted in culture medium for this experiment. Human esophagus carcinoma cancer cell lines (KYSE-70, KYSE-150, KYSE-450 and KYSE-520) were cultured in RPMI 1640 or DMEM medium, containing 10% fetal bovine serum and 1% antibiotics (Penicillin and strep). The cell lines were cultured at 37° C. in a humidified environment containing 5% CO2. A standard colorimetric MTT assay was used to determine the cell viability. Cells were seeded in a 96-well plate (3×10^3 cells/well) and allowed to attach to the plate overnight. After the recovery, cells were treated with various concentrations of compound 1 or the crude extract (1.56, 3.125, 6.25, 12.5, 25, 50 μg/mL) for 48 hours. Then, 20 μL of MTT (5 mg/mL stock in PBS) per well was added into the medium (200 μL) and incubated for 4 hours at 37° C. Finally, the culture medium was removed and 200 μL of DMSO were added. Absorbance of the solution was measured using a microplate reader spectrophotometer (Bio-Rad Laboratories, Inc., Hercules, Calif.) at a wavelength of 570 nm.

[2] = test system: KYSE-520; experiment: MTT cytotoxicity assay, KYSE-520; type: cell-based, Human; settings: KYSE-520, highest concentration of 50 μg/mL, 48 hours
Description: as §1

[3] = test system: KYSE-450; experiment: MTT cytotoxicity assay, KYSE-450; type: cell-based, Human; settings: KYSE-450, highest concentration of 50 μg/mL, 48 hours
Description: as §1

[4] = test system: KYSE-150 cells; experiment: Tumor xenograft mouse model; type: in vivo, Balb/c nude mice; settings: 15 and 30 mg/kg/day intraperitoneal, 12 days, vs saline control
Description: Six to eight-week-old female Balb/c nude weighing between 16-20 g were bred in 12 h day/night cycle environment with free access to food and water. 2×10^6 KYSE-150 cells per […] saline were injected subcutaneously into the flanks of the mice. When the tumor volume reached about 100 mm^3, the mice were randomly divided into three groups (n=5) as followed: (i) a control group: administered with saline; (ii) a low dosage group: administered with compound 1 at 15 mg/kg/day by intraperitoneal injection; (iii) a high dosage group, administered with compound 1 at 30 mg/kg/day by intraperitoneal injection. Tumor volumes were calculated with calipers every two days according to the formula: Volume=(width)^2×length/2. After 12 days observation, mice were killed to remove the tumor. Then the samples were fixed in 4% paraformaldehyde and embedded in paraffin. Five-micro-meter sections were stained with hematoxylin/eosin according to a standard procedure. The protocol was approved by the committee for Care of Laboratory Animals in the School of Chinese Medicine at the Hong Kong Baptist University.

[5] = test system: KYSE-150 cells; experiment: Wound healing assay; type: cell-based, human; settings: KYSE-150, 50 μg/mL, after 72 hours, vs control
Description: Cells were seeded in 12 wells plate at 30% confluence by scoring with a sterile plastic tip (1 mL), then washed several times with medium to remove cell debris and then incubated in the conditioned medium in the absence or presence of compound 1 at 50 μg/mL for various periods of time up to 72 hours. Cell migration into the wound surface was monitored by Olympus IX71 microscopy and digitally photographed.
To further examine the inhibitory effect of compound 1 on the migratory activity of cancer cell, a confluent monolayer of KYSE-150 cells was scratched to form a wound and incubated in the absence or presence of compound 1 (50 μg/mL) as compared to that of controls.

[6] = test system: KYSE-70; experiment: MTT cytotoxicity assay, KYSE-70; type: cell-based, Human; settings: KYSE-70, highest concentration of 50 μg/mL, 48 hours
Description: as §1

## COc1cc(-c2oc3cc(O)cc(O)c3c(=O)c2OC2OC(COC3OC(C)C(O)C(O)C3O)C(O)C(O)C2O)ccc1O (stereo not drawn) [compound 1]
[1]
  Cytotoxicity (cell viability): cells viability was not altered; also recorded: no cytotoxicity was observed
[2]
  Cytotoxicity (cell viability): no cytotoxicity was observed
[3]
  Cytotoxicity (cell viability): no cytotoxicity was observed
[4]
  Body weight: significantly reduced
  H&E staining of tumor tissue: massive necrotizing tissue
  Tumor growth (tumor volume): significantly reduced
  Tumor weight: significantly reduced tumor weight
[5]
  Cell migration: significantly inhibited the cell migration
[6]
  Cytotoxicity (cell viability): no cytotoxicity was observed
